# “Also recorded” adds a separate entry of the source.
# What was measured:
# Assay type in all cases: cell-based
# [1] = system: Alternaria alternata; test: Cylinder Agar Plate Assay (Example 3)
# Excerpt: Cetyl pyridinium chloride (CPC) and benzalkonium chloride (BKC) were both independently tested to determine their efficacy of inhibiting Alternaria alternata, a fungus typically associated with non-invasive fungus-induced rhinosinusitis. An in vitro test of the efficacy of BKC and CPC in combination was also completed against Alternaria alternata.
# Five concentrations of BKC and CPC were independently tested against Alternaria alternata in a cylinder Agar Plate Assay. The CPC concentrations were 0.005%, 0.01%, 0.05%, 0.25% and 1.0%, whereas the BKC concentrations were 0.00025%, 0.001%, 0.005%, 0.025%, and 0.1%. These concentrations were chosen to include the concentrations in the SINOFRESH product as well as two concentrations above and two concentrations below the SINOFRESH product.
# Five concentrations of a combination of BKC and CPC were independently tested against Alternaria alternata in a cylinder Agar Plate Assay. The concentrations were as follows:
# Five concentrations of the SINOFRESH product were also subjected to the same Agar Plate Assay, with the same concentrations of BKC and CPC.
# [2] = system: Alternaria alternata; test: Inhibition of Alternaria alternata in RPMI-1640 broth tubes, visual growth rating 0-4 (Example 2); conditions: spiked, 48 hours at 30-35°
# Description: Amphotericin-B and Parabens (methylparaben and propylparaben) were tested for their ability to inhibit the fungus Alternaria alternata. Samples were stored at 2-8° C. prior to use.
# Prepared an inoculating culture of Alternaria alternata by placing an ATCC pellet in 5 mL phosphate buffer, after dissolution spread the broth and dissolved pellet over the surface of a PDA plate using a FIG. 8 motion. The inoculum plate was incubated for five days at 20-25° C.
# After the five day incubation period, 3 ml of modified phosphate buffer was used to wet the surface growth of the PDA plate. The surface of the culture was washed with the buffer using a sterile spreader stick. After washing, a 10 mL pipette was used to remove as much of the wash as is possible without picking up any agar. The wash was pipetted into a sterile culture tube.
# Serial dilutions of the wash modified phosphate buffer were performed using modified phosphate buffer to determine the dilution that yields a mold population of 10^6 per mL. The dilutions were done by pipetting 1 mL of each dilution of the wash into molten potato dextrose agar plates pH 3.5 in quadruplicate, incubating at 20-25° C. for five days, assuring that there are not mixed cultures, and then counting the colonies on the plates. The correct dilution yielded counts of 30-300 CFU's. To maintain the correct dilution for inoculation, all dilutions were refrigerated at 2-8° C. until needed. […] A 0.1 mL aliquot of this dilution was used to inoculate the inhibition culture tubes.
# Twelve sterile test tubes were prepared with 9 mL Modified Synthetic Medium RPMI-1640 broth that has been tempered in a 45-50° C. water bath and labeled as follows: Amphotericin B neg. control, Ampho-B 100 spike, Ampho-B 2 spike, Ampho-B 1 spike, Ampho-B 0.5 spike, Paraben neg. control, Paraben 400/100 spike, Paraben 300/75 spike, Paraben 200/50 spike, Paraben 100/25 spike, Pos. control, Neg control.
# An Amphotericin-B suspension was prepared by placing in suspension 10 mg of Amphotericin-B in 10 mL in modified phosphate buffer. The sample was mixed by vortex for 30 seconds. […]
# Control samples, Amphotericin B and Parabens dilutions were all prepared from the stock solutions. To all tube labeled “spike” and positive control, 0.1 mL of the inoculated buffer was added and determined to yield […]. […] The growth in each tube was recorded visually, on a 0-4 scale: 0: no growth observed, 1: slight growth or ˜25% of the growth control, 2: prominent growth or ˜50% of the growth control, 3: slight reduction in growth or ˜75% of the growth control, and 4: no reduction in growth or 100% of the growth control. […]
# [3] = system: Alternaria alternata; test: Antifungal Efficacy, sample diluted and plated, plates read for mold growth (Example 1); conditions: 100% sample; diluted and plated at 1, 4, 24 and 48 hours of incubation; plate read on days 2, 3 and 5
# Description: SINOFRESH Essential Nasal Cleansing Formula, which included cetylpyridinium chloride (CPC) at 0.02% and benzalkonium chloride (BKC) at 0.005%, was tested for its ability to inhibit Alternaria alternata, a fungus typically associated with non-invasive fungus-induced rhinosinusitis. Minimum Inhibitory Concentration (MIC), Antifungal Efficacy, and Selective Agar Streak were all determined, and met the pre-defined acceptance criteria that the negative control test tube had to remain free of growth throughout the study, while the positive control tube had to retain growth throughout the study. No deviations were noted during the study.
# A 100% sample of 0.02% cetylpyridinium chloride was tested for antifungal efficacy. At 1, 4, 24, and 48 hours of incubation, the sample was diluted and plated. On days 2, 3, and 5, the plate was read.
compound,measurement,setting,value
benzalkonium chloride [BKC],effect on the growth of Alternaria alternata,[1]; BKC alone at 0.005% (concentration in the SINOFRESH product),little to no effect; also recorded: essentially inactive
same,effect on the growth of Alternaria alternata,[1]; BKC alone at concentrations of about 0.025% or above,some effect
C[C@@H]1[C@H](O)[C@@H](C)/C=C/C=C/C=C/C=C/C=C/C=C/C=C/[C@H](O[C@@H]2O[C@H](C)[C@@H](O)[C@H](N)[C@@H]2O)C[C@@H]2O[C@](O)(C[C@@H](O)C[C@@H](O)[C@H](O)CC[C@@H](O)C[C@@H](O)CC(=O)O[C@H]1C)C[C@H](O)[C@H]2C(=O)O [Amphotericin B],"Rating (growth, 0-4 scale)",[2]; 0.5 μg/mL,2 (prominent growth or ˜50% of the growth control)
same,"Rating (growth, 0-4 scale)",[2]; 1.0 μg/mL,2 (prominent growth or ˜50% of the growth control)
same,"Rating (growth, 0-4 scale)",[2]; 2.0 μg/mL,1 (slight growth or ˜25% of the growth control)
same,"Rating (growth, 0-4 scale)",[2]; 100 μg/mL,1 (slight growth or ˜25% of the growth control)
"CCCCCCCCCCCCCCCC[n+]1ccccc1 [CPC, cetylpyridinium chloride]",mold growth on plate,[3],did not exhibit any mold growth
same,effect on the growth of Alternaria alternata,"[1]; CPC alone at 0.005%, 0.01%, 0.05%, 0.25% and 1.0%",most observable effect

# From patent US20080131420A1, “METHODS AND COMPOSITIONS FOR TREATING MUCOSAL INFLAMMATION” (Accentia, Inc., priority 2006, published 2008)
